{"source": "paper PMC12044326", "about": "(Clinical Pharmacology in Drug Development, 2025)", "key": {"[1]": {"molecular_target": "T1, OATP1B3 (Homo sapiens, UniProt Q9NPD5)", "T1 sequence (Q9NPD5 1-702)": "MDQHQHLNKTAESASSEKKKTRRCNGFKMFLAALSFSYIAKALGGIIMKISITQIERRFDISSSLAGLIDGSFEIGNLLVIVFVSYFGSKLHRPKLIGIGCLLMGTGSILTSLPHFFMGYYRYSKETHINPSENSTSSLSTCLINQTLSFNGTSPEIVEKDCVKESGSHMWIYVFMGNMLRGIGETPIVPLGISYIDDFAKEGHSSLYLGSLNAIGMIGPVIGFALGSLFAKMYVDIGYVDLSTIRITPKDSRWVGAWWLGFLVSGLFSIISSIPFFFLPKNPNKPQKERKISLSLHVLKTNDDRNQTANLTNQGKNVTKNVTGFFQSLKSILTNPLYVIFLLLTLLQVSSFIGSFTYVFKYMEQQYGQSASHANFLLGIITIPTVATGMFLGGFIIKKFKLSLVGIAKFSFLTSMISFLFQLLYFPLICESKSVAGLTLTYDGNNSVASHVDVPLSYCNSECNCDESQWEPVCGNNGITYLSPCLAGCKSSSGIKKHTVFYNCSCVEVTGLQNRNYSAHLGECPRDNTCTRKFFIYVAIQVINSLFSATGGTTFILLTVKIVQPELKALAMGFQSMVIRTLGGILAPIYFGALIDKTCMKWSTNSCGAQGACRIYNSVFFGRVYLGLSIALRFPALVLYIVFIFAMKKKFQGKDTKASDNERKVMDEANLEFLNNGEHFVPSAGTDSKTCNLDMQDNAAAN"}, "[2]": {"molecular_target": "T2, OATP1B1 (Homo sapiens, UniProt Q9Y6L6)", "T2 sequence (Q9Y6L6 1-691)": "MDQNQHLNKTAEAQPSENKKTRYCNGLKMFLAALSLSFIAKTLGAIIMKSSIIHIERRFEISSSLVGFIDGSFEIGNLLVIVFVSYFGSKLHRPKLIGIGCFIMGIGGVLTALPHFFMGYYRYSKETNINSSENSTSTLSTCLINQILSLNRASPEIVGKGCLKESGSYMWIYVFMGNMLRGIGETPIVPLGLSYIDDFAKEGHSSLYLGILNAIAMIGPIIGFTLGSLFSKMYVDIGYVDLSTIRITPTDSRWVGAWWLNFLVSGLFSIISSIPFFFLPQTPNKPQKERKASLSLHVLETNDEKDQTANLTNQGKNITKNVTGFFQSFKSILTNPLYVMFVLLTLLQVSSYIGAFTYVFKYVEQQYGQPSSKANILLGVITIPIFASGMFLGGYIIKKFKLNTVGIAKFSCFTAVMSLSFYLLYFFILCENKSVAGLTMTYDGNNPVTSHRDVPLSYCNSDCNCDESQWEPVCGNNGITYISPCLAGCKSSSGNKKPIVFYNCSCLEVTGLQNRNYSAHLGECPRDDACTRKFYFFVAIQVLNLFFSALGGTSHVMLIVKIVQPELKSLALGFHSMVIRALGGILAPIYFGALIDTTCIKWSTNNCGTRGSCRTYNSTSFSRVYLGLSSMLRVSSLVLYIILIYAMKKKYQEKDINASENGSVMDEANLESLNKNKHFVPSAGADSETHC"}, "[3]": {"conditions": "ref 6 of supplement, cited from earlier work; for AUC0-inf observed / Cmax observed: geometric mean; for tmax observed: median"}, "[4]": {"molecular_target": "T3, P‐gp (Homo sapiens, UniProt P08183)", "T3 construct": "Caco-2 cells were obtained from American Type Culture Collection; host or cells: Caco-2 cell monolayers", "T3 sequence (P08183 whole entry)": "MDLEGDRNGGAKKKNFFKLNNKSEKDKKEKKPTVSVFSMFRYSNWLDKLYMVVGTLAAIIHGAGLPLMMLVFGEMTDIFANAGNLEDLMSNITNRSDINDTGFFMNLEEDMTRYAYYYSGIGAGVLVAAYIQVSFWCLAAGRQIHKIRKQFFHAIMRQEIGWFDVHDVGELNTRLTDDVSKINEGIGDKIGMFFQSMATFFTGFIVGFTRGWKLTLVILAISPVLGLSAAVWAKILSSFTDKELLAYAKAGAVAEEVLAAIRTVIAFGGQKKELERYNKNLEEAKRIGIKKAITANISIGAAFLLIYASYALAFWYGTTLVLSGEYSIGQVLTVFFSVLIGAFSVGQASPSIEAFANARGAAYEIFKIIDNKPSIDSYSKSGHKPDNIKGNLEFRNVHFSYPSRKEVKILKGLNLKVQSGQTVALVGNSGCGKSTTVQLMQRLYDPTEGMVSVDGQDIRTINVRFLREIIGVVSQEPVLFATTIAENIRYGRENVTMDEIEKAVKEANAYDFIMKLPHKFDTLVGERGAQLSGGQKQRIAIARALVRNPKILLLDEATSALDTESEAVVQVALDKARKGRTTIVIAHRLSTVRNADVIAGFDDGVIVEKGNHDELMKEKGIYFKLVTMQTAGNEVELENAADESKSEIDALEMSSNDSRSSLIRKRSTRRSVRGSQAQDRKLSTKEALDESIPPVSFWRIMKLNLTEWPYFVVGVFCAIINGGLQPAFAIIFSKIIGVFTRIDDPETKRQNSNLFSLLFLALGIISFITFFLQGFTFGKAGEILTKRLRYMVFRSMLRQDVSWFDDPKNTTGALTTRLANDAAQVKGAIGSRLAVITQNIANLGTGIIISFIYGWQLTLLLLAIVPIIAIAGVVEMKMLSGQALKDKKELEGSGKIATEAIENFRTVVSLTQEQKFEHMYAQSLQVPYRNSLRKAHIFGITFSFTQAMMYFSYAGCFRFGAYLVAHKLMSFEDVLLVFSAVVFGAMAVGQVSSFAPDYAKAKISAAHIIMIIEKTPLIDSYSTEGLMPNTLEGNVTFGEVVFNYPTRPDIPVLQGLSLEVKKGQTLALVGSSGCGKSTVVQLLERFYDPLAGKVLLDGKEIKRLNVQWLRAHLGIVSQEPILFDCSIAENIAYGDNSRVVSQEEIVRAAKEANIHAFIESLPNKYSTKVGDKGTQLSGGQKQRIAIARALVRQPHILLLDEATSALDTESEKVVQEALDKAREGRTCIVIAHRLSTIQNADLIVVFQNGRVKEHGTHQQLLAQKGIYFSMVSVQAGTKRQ", "type": "in vitro ADME", "description": "(§1) Prior to the experiments,\n(§2) The cells were cultured at […]\n(§3) measuring the trans-epithelial electrical resistance (TEER) value. The TEER values of cell […]\n(§4) The volumes of the replaced […]\n(§5) shaker at 37°C until use.\n(§6) Apical to Basal Transport (A to B).\n(§7) (soticlestat or quinidine) were added.\n(§8) After incubation for 1 hour, 100 μL […]\n(§9) radioactivity using an LSC. […]\n(§10) collected and measured for the radioactivity using an LSC.\n(§11) Basal to Apical Transport (B to A).\n(§12) (soticlestat or quinidine) were added. […] Then […]\n(§13) cells were incubated at 37°C.\n(§14) HBSS solution were added to the apical side."}, "[5]": {"molecular_target": "T4, P‐glycoprotein (P‐gp) (Homo sapiens, UniProt P08183)", "T4 construct": "Caco-2 cells were obtained from American Type Culture Collection; host or cells: Caco-2 cell monolayers", "T4 sequence (P08183 whole entry)": "as above", "type": "in vitro ADME", "description": "as §1, §2, §3, §4, §5, §6, §7, §8, §9, §10, §11, §12, §13, §14"}}, "note": "Read-outs that look alike come from different tables or passages of the source.", "data": [{"smiles": "O=C(c1cccnc1-c1ccncc1)N1CCC(O)(Cc2ccccc2)CC1", "note": "[Soticlestat]", "values": [{"measurement": "substrate for OATP1B3", "setting": "[1]", "result": "not a substrate"}, {"measurement": "substrate for OATP1B1", "setting": "[2]", "result": "not a substrate"}, {"measurement": "AUC0-inf observed", "setting": "[3]; 15 mg single oral dose", "result": 22.6, "unit": "ng·h/mL"}, {"measurement": "Cmax observed", "setting": "[3]; 15 mg single oral dose", "result": 33.5, "unit": "ng/mL"}, {"measurement": "tmax observed", "setting": "[3]; 15 mg single oral dose", "result": 15, "unit": "min"}, {"measurement": "AUC0-inf observed", "setting": "[3]; 50 mg single oral dose", "result": 134, "unit": "ng·h/mL"}, {"measurement": "Cmax observed", "setting": "[3]; 50 mg single oral dose", "result": 167, "unit": "ng/mL"}, {"measurement": "tmax observed", "setting": "[3]; 50 mg single oral dose", "result": 15, "unit": "min"}, {"measurement": "AUC0-inf observed", "setting": "[3]; 200 mg single oral dose", "result": 591, "unit": "ng·h/mL"}, {"measurement": "Cmax observed", "setting": "[3]; 200 mg single oral dose", "result": 527, "unit": "ng/mL"}, {"measurement": "tmax observed", "setting": "[3]; 200 mg single oral dose", "result": 15, "unit": "min"}, {"measurement": "AUC0-inf observed", "setting": "[3]; 600 mg single oral dose", "result": 4937, "unit": "ng·h/mL"}, {"measurement": "Cmax observed", "setting": "[3]; 600 mg single oral dose", "result": 3847, "unit": "ng/mL"}, {"measurement": "tmax observed", "setting": "[3]; 600 mg single oral dose", "result": 30, "unit": "min"}, {"measurement": "AUC0-inf observed", "setting": "[3]; 900 mg single oral dose", "result": 7454, "unit": "ng·h/mL"}, {"measurement": "Cmax observed", "setting": "[3]; 900 mg single oral dose", "result": 4814, "unit": "ng/mL"}, {"measurement": "AUC0-inf observed", "setting": "[3]; 1350 mg single oral dose", "result": "12,699 h.ng/mL"}, {"measurement": "Cmax observed", "setting": "[3]; 1350 mg single oral dose", "result": 7672, "unit": "ng/mL"}, {"measurement": "tmax observed", "setting": "[3]; 1350 mg single oral dose", "result": 48, "unit": "min"}, {"measurement": "substrate for P‐gp", "setting": "[4]", "result": "not a substrate"}, {"measurement": "IC50", "setting": "[5]", "result": 81.1, "unit": "µM"}, {"measurement": "Ki", "setting": "[5]", "result": 80, "unit": "µM"}]}]}
